In patent publication US5068334A, “Pharmaceutical compositions containing quinolin-2,5-diones, new quinolin-2,5-diones and processes for the preparation thereof” (Karl Thomae GmbH, priority 1988, dated 1991):
Like-named read-outs stand apart in the source and are kept apart here.

How the values were obtained:
[1] = system: body temperature of normothermic rats; assay: effect on body temperature of normothermic rats; assay type: in vivo; details: Rattus norvegicus, po, oesophageal tube, 1% methylcellulose, rectal temperature, read-out: ED^-1.5° C. (dosage which lowered the body temperature by 1.5° C.)
Protocol: 4. The effect on body temperature was investigated on normothermic rats weighing between 120 and 140 g. The test substances were administered by oesophageal tube as a trituration in 1% methylcellulose (1.0 ml/100 g of animal). From the lowering of rectal temperature observed after various dosages, the ED^-1.5° C. was calculated by linear regression analysis as the dosage which lowered the body temperature by 1.5° C.

[2] = system: pain of inflammation in rats; assay: effect on the pain of inflammation in rats (RANDALL and SELITTO); assay type: in vivo, rat; details: sc, male rats, oesophageal tube, 1% methylcellulose, after subcutaneous yeast
Protocol: 1. The effect on the pain of inflammation in rats was tested using the method of RANDALL and SELITTO (Arch. int. Pharmacodyn. 111, 409 (1957)). The test substances were administered to male rats weighing between 100 and 130 g as a trituration in 1% methylcellulose (1.0 ml/100 g of animal) 90 or 135 minutes after subcutaneous administration of yeast by oesophageal tube. From the pain threshold measured 90 or 45 minutes after administration of the various doses, the ED^50 was determined by linear regression analysis as the dosage which raised the pain threshold by 50%. The following

[3] = system: mechanically induced pain; assay: effect on mechanically induced pain, tail clamp method (HAFFNER); assay type: in vivo; details: Mus musculus, po, 0.5 h, male mice, oesophageal tube, 1% methylcellulose, 30 minute intervals, read-out: ED^50 (percentage of animals which showed no pain-reaction)
[4] = acute toxicity in rats; details: in vivo, po; rat, both sexes, oesophageal tube, death within 14 days
Protocol: (§1) 5. The acute toxicity was determined in mice or rats of both sexes with an average weight of 20 g. The test substances were administered by oesophageal tube as a trituration in 1% methylcellulose (0.2 ml/10 g of animal). Wherever possible the LD50 was calculated according to LITCHFIELD and WILCOXON (J. Pharmacol. exp. Therap. 96, 99 (1949)) from the percentage of animals which died within 14 days after receiving various doses.

[5] = system: heat-induced pain in mice; assay: effect on heat-induced pain in mice (CHEN and BECKMAN); assay type: in vivo; details: Mus musculus, po; male mice, oesophageal tube, 1% methylcellulose; read-out: ED^100 (dosage which doubled the reaction time)
Protocol: 2. The effect on heat-induced pain in mice was investigated using the method of CHEN and BECKMAN (Science 113, 631 (1951). Male mice with an average weight of 20 g were given the test substances as a trituration in 1% methylcellulose (0.1 ml/10 g of animal by oesophageal tube. From the lengthening of the individual reaction time observed after various doses, the ED^100 was calculated by linear regression analysis as the dosage which doubled the reaction time.

[6] = acute toxicity in mice; details: in vivo, po; mouse, both sexes, oesophageal tube, death within 14 days; read-out: LD^50 Mouse
Protocol: as §1

[7] = 0.75 h, pain threshold 45 minutes after administration, read-out: ED^50 after 45 minutes (dosage which raised the pain threshold by 50%)
[8] = 1.5 h, pain threshold 90 minutes after administration, read-out: ED^50 after 90 minutes (dosage which raised the pain threshold by 50%)

SMILES | ED (-1.5 degC) [1] [mg/kg] | ED50 [2, 7] [mg/kg] | ED50 [2, 8] [mg/kg] | ED50 [3] [mg/kg] | LD50 at 336 h [4] [mg/kg] | ED100 [5] [mg/kg] | LD50 at 336 h [6] [mg/kg]
CC1CC2=C(CCCC2=O)NC1=O (stereo not drawn) [Substance B, 3-methyl-3,4,7,8-tetrahydro-2,5(1H,6H)-quinolinedione] | 35 | 37 | 39 | 100 | 659 | 155 | 1220
CCN1C(=O)CCC2=C1CCCC2=O [Substance I, 1-ethyl-3,4,7,8-tetrahydro-2,5(1H,6H)-quinolinedione] | 22 | 13 | 16 | 55 |  | 70 | 
Cc1cc2c([nH]c1=O)CCCC2=O [Substance E, 3-methyl-7,8-dihydro-2,5(1H,6H)-quinolinedione] | 34 | 31 | 36 | 102 |  | 135 | 825
CCCCn1c2c(c(C)cc1=O)C(=O)CCC2 [Substance H, 1-n-butyl-4-methyl-7,8-dihydro-2,5(1H,6H)-quinolinedione] | 36 |  | 19.1 | 50 |  | 101 | 
Cc1cc2c(n(C)c1=O)CCCC2=O [Substance F, 1,3-dimethyl-7,8-dihydro-2,5(1H,6H)-quinolinedione] | 36 | 12.5 | 12.1 | 86 | 396 | 109 | 296
Cn1c2c(ccc1=O)C(=O)CCC2 [Substance A, 1-methyl-7,8-dihydro-2,5(1H,6H)-quinolinedione] | 29 | 8.7 | 8.1 | 80 | 489 | 71 | 767
Cc1cc(=O)[nH]c2c1C(=O)CCC2 [Substance D, 4-methyl-7,8-dihydro-2,5(1H,6H)-quinolinedione] | 25 | 21 | 34 | 129 | 1370 | 98 | 
CN1C(=O)CCC2=C1CCCC2=O [Substance C, 1-methyl-3,4,7,8-tetrahydro-2,5(1H,6H)-quinolinedione] | 26 | 15 | 21 | 129 | 748 | 99 | 985
CCn1c2c(c(C)cc1=O)C(=O)CCC2 [Substance G, 1-ethyl-4-methyl-7,8-dihydro-2,5(1H,6H)-quinolinedione] | 11 | 5.1 | 5.9 | 26 |  | 59 | 
